In article PMC3858179 (Journal of medicinal chemistry, 2008):

Legend:
[1] = molecular target: T1, T. gondii DHFR (Toxoplasma gondii, UniProt Q07422); assay type: biochemical; conditions: 20 compounds jointly assayed, by both protocols (Table 1 and Table 2 conditions)
T1 sequence (Q07422 1-610): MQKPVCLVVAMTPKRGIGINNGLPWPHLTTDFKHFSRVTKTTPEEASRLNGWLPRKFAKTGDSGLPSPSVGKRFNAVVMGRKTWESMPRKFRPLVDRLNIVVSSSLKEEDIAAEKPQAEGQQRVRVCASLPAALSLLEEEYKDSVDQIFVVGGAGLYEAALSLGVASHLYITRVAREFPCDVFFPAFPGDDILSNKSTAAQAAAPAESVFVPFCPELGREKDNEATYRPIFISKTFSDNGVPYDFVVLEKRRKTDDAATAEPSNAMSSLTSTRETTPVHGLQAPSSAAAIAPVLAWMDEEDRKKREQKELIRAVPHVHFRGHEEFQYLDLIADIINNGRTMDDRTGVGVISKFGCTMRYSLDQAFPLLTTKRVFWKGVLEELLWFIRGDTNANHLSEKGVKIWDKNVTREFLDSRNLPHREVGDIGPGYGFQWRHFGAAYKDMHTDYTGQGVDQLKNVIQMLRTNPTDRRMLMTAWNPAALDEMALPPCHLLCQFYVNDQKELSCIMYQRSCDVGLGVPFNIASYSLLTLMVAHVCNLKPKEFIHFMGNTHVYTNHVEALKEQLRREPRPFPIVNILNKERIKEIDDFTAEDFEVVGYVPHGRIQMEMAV

[2] = tested on: CAKI-1; test: NCI tumor cell growth inhibition, CAKI-1; assay type: cell-based; conditions: Homo sapiens, CAKI-1, read-out: GI50 CAKI-1
[3] = tested on: NCI-H460; test: NCI tumor cell growth inhibition, NCI-H460; assay type: cell-based; conditions: Homo sapiens, NCI-H460, read-out: GI50 NCI-H460
[4] = tested on: HL-60 × (TB); test: NCI tumor cell growth inhibition, HL-60 ×; assay type: cell-based; conditions: Homo sapiens, HL-60, read-out: GI50 HL-60 × (TB)
[5] = tested on: RPMI-8226; test: NCI tumor cell growth inhibition, RPMI-8226; assay type: cell-based; conditions: Homo sapiens, RPMI-8226, read-out: GI50 RPMI-8226
[6] = tested on: SF268; test: NCI tumor cell growth inhibition, SF268; assay type: cell-based; conditions: Homo sapiens, SF-268, read-out: GI50 SF268
[7] = tested on: U251; test: NCI tumor cell growth inhibition, U251; assay type: cell-based; conditions: Homo sapiens, U-251, read-out: GI50 U251
[8] = tested on: K-562; test: NCI tumor cell growth inhibition, K-562; assay type: cell-based; conditions: Homo sapiens, K562, read-out: GI50 K-562
[9] = molecular target: P. carinii DHFR (Pneumocystis carinii, UniProt P16184); test: biochemical
Chain of P. carinii DHFR (P16184 whole entry): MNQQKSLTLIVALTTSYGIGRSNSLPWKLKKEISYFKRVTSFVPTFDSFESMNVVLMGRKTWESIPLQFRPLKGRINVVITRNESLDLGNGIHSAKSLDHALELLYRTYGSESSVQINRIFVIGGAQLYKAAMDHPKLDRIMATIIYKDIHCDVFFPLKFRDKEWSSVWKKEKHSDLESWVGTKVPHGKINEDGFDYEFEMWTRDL

[10] = tested on: CCRF-CEM; test: NCI tumor cell growth inhibition, CCRF-CEM; assay type: cell-based; conditions: Homo sapiens, read-out: GI50 CCRF-CEM
[11] = molecular target: T2, human DHFR (Homo sapiens, UniProt P00374); test: Inhibition of isolated human DHFR; assay type: biochemical
T2 sequence (P00374 1-187): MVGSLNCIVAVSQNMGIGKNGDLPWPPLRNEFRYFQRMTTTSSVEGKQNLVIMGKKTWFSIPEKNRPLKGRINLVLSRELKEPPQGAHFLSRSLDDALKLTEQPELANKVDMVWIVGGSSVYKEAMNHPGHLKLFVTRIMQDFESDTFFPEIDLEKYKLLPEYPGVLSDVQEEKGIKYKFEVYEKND

[12] = tested on: LOX IMVI; test: NCI tumor cell growth inhibition, LOX IMVI; assay type: cell-based; conditions: Homo sapiens, read-out: GI50 LOX IMVI
[13] = tested on: HCT 15; test: NCI tumor cell growth inhibition, HCT 15; assay type: cell-based; conditions: Homo sapiens, HCT-15, read-out: GI50 HCT 15
[14] = molecular target: M. avium DHFR (Mycobacterium avium, UniProt O30463); test: Inhibition of isolated M. avium DHFR; assay type: biochemical
Chain of M. avium DHFR (O30463 1-181): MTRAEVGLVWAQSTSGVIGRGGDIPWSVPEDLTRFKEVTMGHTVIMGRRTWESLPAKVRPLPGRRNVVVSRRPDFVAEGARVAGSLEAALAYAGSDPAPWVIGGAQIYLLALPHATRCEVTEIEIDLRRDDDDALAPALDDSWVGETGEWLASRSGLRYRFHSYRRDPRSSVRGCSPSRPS

[15] = tested on: SW-620; test: NCI tumor cell growth inhibition, SW-620; assay type: cell-based; conditions: Homo sapiens, SW-620, read-out: GI50 SW-620
[16] = tested on: ACHN; test: NCI tumor cell growth inhibition, ACHN; assay type: cell-based; conditions: Homo sapiens, read-out: GI50 ACHN
[17] = molecular target: human TS (Homo sapiens, UniProt P04818); test: Inhibition of isolated human TS; assay type: biochemical
Chain of human TS (P04818 whole entry): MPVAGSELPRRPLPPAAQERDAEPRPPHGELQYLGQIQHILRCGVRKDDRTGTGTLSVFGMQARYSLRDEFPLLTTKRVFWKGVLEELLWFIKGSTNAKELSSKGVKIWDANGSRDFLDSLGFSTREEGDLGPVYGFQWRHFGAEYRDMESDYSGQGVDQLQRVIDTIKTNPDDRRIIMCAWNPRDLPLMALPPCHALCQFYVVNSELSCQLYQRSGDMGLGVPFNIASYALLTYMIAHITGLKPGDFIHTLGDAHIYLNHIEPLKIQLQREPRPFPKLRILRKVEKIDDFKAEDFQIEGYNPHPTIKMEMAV

[18] = tested on: MOLT-4; test: NCI tumor cell growth inhibition, MOLT-4; assay type: cell-based; conditions: Homo sapiens, MOLT-4, read-out: GI50 MOLT-4
[19] = molecular target: rat liver DHFR (Rattus norvegicus, UniProt Q920D2); test: Inhibition of isolated rat liver DHFR; assay type: biochemical
Chain of rat liver DHFR (Q920D2 whole entry): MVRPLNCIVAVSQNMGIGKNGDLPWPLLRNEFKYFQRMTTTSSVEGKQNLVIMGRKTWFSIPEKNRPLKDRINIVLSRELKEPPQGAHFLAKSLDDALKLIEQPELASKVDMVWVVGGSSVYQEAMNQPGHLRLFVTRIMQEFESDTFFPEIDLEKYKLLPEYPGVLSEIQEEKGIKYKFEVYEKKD

[20] = tested on: HT29; test: NCI tumor cell growth inhibition, HT29; assay type: cell-based; conditions: Homo sapiens, HT-29, read-out: GI50 HT29
[21] = tested on: 60 tumor cell lines; test: NCI in vitro preclinical antitumor screening, 60 tumor cell lines; assay type: cell-based

CC(C)c1c(Sc2ccc(C(=O)N[C@@H](CCC(=O)O)C(=O)O)cc2)[nH]c2nc(N)nc(N)c12 [Compound 4, N-[4-[(2,4-Diamino-5-isopropyl-7H-pyrrolo[2,3-d]pyrimidin-6-yl)sulfanyl]-benzoyl]-L-glutamate]
potency rank against T. gondii DHFR, in words [1]: three most potent compounds | GI50 [2]: 4.25 µM | GI50 [3]: 6.45 µM | GI50 [4]: 5.65 µM | GI50 [5]: 7.74 µM | GI50 [6]: 17.8 µM | GI50 [7]: 7.24 µM | GI50 [8]: 0.932 µM | IC50 [9]: 0.0048 µM | Selectivity ratio rl/pc ([9]; IC50 rat liver DHFR/IC50 P. carinii DHFR): 38.8 | GI50 [10]: 0.536 µM | IC50 [11]: 0.09 µM | fold less potent as hDHFR inhibitor compared with MTX [11]: ~4 fold | fold more potent than pemetrexed as hDHFR inhibitor [11]: ~17 fold | inhibition of hDHFR, in words [11]: good inhibitors | GI50 [12]: 1.14 µM | GI50 [13]: 34.8 µM | IC50 [14]: 0.000391 µM | Selectivity ratio rl/ma ([14]; IC50 rat liver DHFR/IC50 M. avium DHFR): 475.7 | GI50 [15]: 4.71 µM | GI50 [16]: 7.39 µM | fold less inhibitory than pemetrexed against hTS [17]: 4 fold | fold less potent than 1 as inhibitor of hTS [17]: 63-74 fold | GI50 [18]: 1.31 µM | IC50 [19]: 0.186 µM | GI50 [20]: 5.76 µM | GI50 [21]: < 1 µM
